Reference: US11059787B2, “Crystalline form of lenvatinib mesylate and methods thereof” (Shenzhen Bolan Pharmaceutical Co., LTD., priority 2019, dated 2021)

How the values were obtained:
[1] = Solubility in water with 1% polyvinyl alcohol; type: physicochemical; conditions: solids added until not completely dissolved, in suspension for 5 hours, methanesulfonate
Method: The solubility of Form XI was measured as compared to the previously reported Form A and Form C in U.S. Pat. No. 7,612,208. Form XI, Form A and Form C solids were gradually added into water with 1% polyvinyl alcohol until the solids could not dissolve completely and stay in suspension for 5 hours.

[2] = Storage stability of the crystalline form for 15 days, compared by XRPD; type: physicochemical; conditions: stored 15 days at 8° C., 25° C., 25° C./92.5% RH, 25° C./4500 LUX and 40° C./75% RH; XRPD comparison
Method: The stability of Form XI was measured after being stored for 15 days under the following conditions: 8° C., 25° C., 25° C./92.5% RH, 25° C./4500 LUX and 40° C./75% RH.

in vivo = conditions: BALB/c, mouse, po

Solubility [1]	Stability under storage conditions [2]	AUC(0-inf) (in vivo)	Cmax (in vivo)	Tmax (in vivo)	bioavailability (in vivo)	half-life (in vivo)	SMILES
11.75 mg/mL							COc1cc2nccc(Oc3ccc(NC(=O)NC4CC4)c(Cl)c3)c2cc1C(N)=O.CS(=O)(=O)O [Form A, 4-(3-chloro-4-(cyclopropylaminocarbonyl)aminophenoxy)-7-methoxy-6-quinolinecarboxamide methanesulfonate]
16.175 mg/mL							COc1cc2nccc(Oc3ccc(NC(=O)NC4CC4)c(Cl)c3)c2cc1C(N)=O.CS(=O)(=O)O [Form C, 4-(3-chloro-4-(cyclopropylaminocarbonyl)aminophenoxy)-7-methoxy-6-quinolinecarboxamide methanesulfonate]
26.65 mg/mL	stable	38900 ± 11100 ng·h/mL	11500 ± 2920 ng/mL	0.833 h	109%	1.95 ± 0.04 h	COc1cc2nccc(Oc3ccc(NC(=O)NC4CC4)c(Cl)c3)c2cc1C(N)=O.CS(=O)(=O)O [Form XI, 4-(3-chloro-4-(cyclopropylaminocarbonyl)aminophenoxy)-7-methoxy-6-quinolinecarboxamide methanesulfonate]
